Results taken from patent publication US8435978B2, “Substituted sulfonamide compounds” (Gruenenthal GmbH, priority 2006, dated 2013).
Where a name gives a salt, the structure may show the parent alone.

Assays:
[1] = target: T1, human B1R receptor (Homo sapiens, UniProt P46663); assay: Functional study on the bradykinin receptor 1 (B1R), FLIPR Ca2+ assay, hB1R cells; assay type: cell-based; details: agonist Lys-Des-Arg9-bradykinin 0.5 nM, % inhibition compared with the maximum achievable inhibition; for inhibition at 10 µM: CHO-K1, test substance 10 μM, read-out: B1R Antagonism, human [10 μM] % Inhibition; for B1R Antagonism, human [10 μM] % Inhibition: test substance 10 μM, hB1R CHO K1 cells
T1 construct: host or cells: CHO K1 cells (Chinese hamster ovary), stably transfected
T1 sequence (P46663 1-353): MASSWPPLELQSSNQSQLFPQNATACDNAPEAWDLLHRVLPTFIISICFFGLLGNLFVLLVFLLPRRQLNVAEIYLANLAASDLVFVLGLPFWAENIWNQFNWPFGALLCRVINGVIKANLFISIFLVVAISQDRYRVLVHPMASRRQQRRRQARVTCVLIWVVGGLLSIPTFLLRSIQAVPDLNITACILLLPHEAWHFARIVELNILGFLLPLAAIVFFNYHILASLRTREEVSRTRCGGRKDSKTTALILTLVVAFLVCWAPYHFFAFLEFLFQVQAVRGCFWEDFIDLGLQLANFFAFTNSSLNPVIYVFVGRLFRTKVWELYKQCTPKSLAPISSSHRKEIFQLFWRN
Summary of the method: (§1)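 FLIPR Ca2+ assay in recombinant CHO K1 cells (human or rat B1R), Fluo-4 dye; 10 μM compound, 10 min, then EC-level agonist per species (0.5 nM Lys-Des-Arg9-BK human / 100 nM Des-Arg9-BK rat). Output: % inhibition vs maximum.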

[2] = target: T2, B1R receptor of the rat (Rattus norvegicus, UniProt P97583); assay: Functional study on the bradykinin receptor 1 (B1R), FLIPR Ca2+ assay, rB1R cells; assay type: cell-based; details: agonist Des-Arg9-bradykinin 100 nM, % inhibition compared with the maximum achievable inhibition; for inhibition at 10 µM: CHO-K1, test substance 10 μM, read-out: B1R Antagonism, rat [10 μM] % Inhibition
T2 construct: host or cells: CHO K1 cells (Chinese hamster ovary), stably transfected
T2 sequence (P97583 1-337): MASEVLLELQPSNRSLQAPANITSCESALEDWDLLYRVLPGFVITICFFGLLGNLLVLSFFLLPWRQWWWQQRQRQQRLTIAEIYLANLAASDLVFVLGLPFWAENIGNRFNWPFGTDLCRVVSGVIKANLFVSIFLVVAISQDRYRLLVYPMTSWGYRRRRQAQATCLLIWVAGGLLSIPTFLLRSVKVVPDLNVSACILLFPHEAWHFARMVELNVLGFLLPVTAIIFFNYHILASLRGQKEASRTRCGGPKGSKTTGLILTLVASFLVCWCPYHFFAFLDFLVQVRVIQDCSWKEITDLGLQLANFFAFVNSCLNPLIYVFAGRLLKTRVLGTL
Summary of the method: as §1

Row | inhibition at 10 µM [1] | inhibition at 10 µM [2] | B1R Antagonism, human [10 μM] % Inhibition [1] | B1R Antagonism, rat [10 μM] % Inhibition ([2]; test substance 10 μM, rB1R CHO K1 cells) | Structure (SMILES)
1 | 38.8% | 107% | – | – | COc1cc(C)c(S(=O)(=O)N2CCCCC2COCC(=O)Nc2cc(-c3cccs3)n[nH]2)c(C)c1 (stereo not shown) [Example 539, 2-((1-(4-methoxy-2,6-dimethylphenylsulfonyl)piperidin-2-yl)methoxy)-N-(3-(thiophen-2-yl)-1H-pyrazol-5-yl)acetamide]
2 | 96.2% | 103% | – | – | COc1cc(C)c(S(=O)(=O)N2CCCCC2COCC(=O)Nc2ccc(CCc3nc4ccccc4n3C)cc2)c(C)c1 (stereo not shown) [Example 417, 2-((1-(4-methoxy-2,6-dimethylphenylsulfonyl)piperidin-2-yl)methoxy)-N-(4-(2-(1-methyl-1H-benzo[d]imidazol-2-yl)ethyl)phenyl)acetamide]
3 | – | 108% | 93.47% | – | COc1cc(C)c(S(=O)(=O)N2CCCCC2COCC(=O)NCc2ccc(N3CCOCC3)cc2)c(C)c1 (stereo not shown) [Example 21, 2-[1-(4-methoxy-2,6-dimethyl-phenylsulfonyl)-piperidin-2-ylmethoxy]-N-(4-morpholin-4-yl-benzyl)-acetamide]
4 | 95% | 101% | – | – | Cc1cccc(Cl)c1S(=O)(=O)N1CCC[C@H]1COCC(=O)N1CCN(CC2CCN(C)CC2)CC1 [Example 163, (S)-2-((1-(2-chloro-6-methylphenylsulfonyl)pyrrolidin-2-yl)methoxy)-1-(4-((1-methylpiperidin-4-yl)methyl)piperazin-1-yl)ethanone dihydrochloride]
5 | 39.4% | 107% | – | – | COc1cc(C)c(S(=O)(=O)N2CCCC2COCC(=O)NCc2ccc(N3CCOCC3)cc2)c(C)c1 (stereo not shown) [Example 579, 2-((1-(4-methoxy-2,6-dimethylphenylsulfonyl)pyrrolidin-2-yl)methoxy)-N-(4-morpholinobenzyl)acetamide]
6 | – | – | 103.84% | 108.97% | COc1cc(C)c(S(=O)(=O)N2CCCCC2COCC(=O)NCc2ccc(N3CCN(C)CC3)cc2)c(C)c1 (stereo not shown) [Example 3, 2-[1-(4-methoxy-2,6-dimethyl-phenylsulfonyl)-piperidin-2-ylmethoxy]-N-[4-(4-methyl-piperazin-1-yl)-benzyl]-acetamide]
7 | 7.44% | 104% | – | – | COc1cc(C)c(S(=O)(=O)N2CCCCC2COCC(=O)Nc2ccc3ccccc3n2)c(C)c1 (stereo not shown) [Example 546, 2-((1-(4-methoxy-2,6-dimethylphenylsulfonyl)piperidin-2-yl)methoxy)-N-(quinolin-2-yl)acetamide]
8 | 99% | 99% | – | – | CN1CCC(N2CCN(C(=O)COCC3CCCCN3S(=O)(=O)c3c(Cl)cc(Br)cc3Cl)CC2)CC1 (stereo not shown) [Example 160, 2-((1-(4-bromo-2,6-dichlorophenylsulfonyl)piperidin-2-yl)methoxy)-1-(4-(1-methylpiperidin-4-yl)piperazin-1-yl)ethanone dihydrochloride]
9 | 105% | 95.2% | – | – | CN(C)CCN1CCN(C(=O)COCC2CCCN2S(=O)(=O)c2c(Cl)cccc2Cl)CC1 (stereo not shown) [Example 452, 2-((1-(2,6-dichlorophenylsulfonyl)pyrrolidin-2-yl)methoxy)-1-(4-(2-(dimethylamino)ethyl)piperazin-1-yl)ethanone]
10 | 66.5% | 94.2% | – | – | COc1cc(C)c(S(=O)(=O)N2CCCC2COCC(=O)N2CCCC2Cc2ccccn2)c(C)c1 (stereo not shown) [Example 447, 2-((1-(4-methoxy-2,6-dimethylphenylsulfonyl)pyrrolidin-2-yl)methoxy)-1-(2-(pyridin-2-ylmethyl)pyrrolidin-1-yl)ethanone]
11 | 91.1% | 99.7% | – | – | COc1ccc(S(=O)(=O)N2Cc3ccccc3C[C@H]2COCC(=O)N2CCC(CCN3CCCC3)CC2)cc1 [Example 182, (S)-2-((2-(4-methoxyphenylsulfonyl)-1,2,3,4-tetrahydroisoquinolin-3-yl)methoxy)-1-(4-(2-(pyrrolidin-1-yl)ethyl)piperidin-1-yl)ethanone]
12 | 105% | 107% | – | – | COc1cc(C)c(S(=O)(=O)N2CCCC2COCC(=O)NCc2ccc(CN3CCCCC3)cc2)c(C)c1 (stereo not shown) [Example 1, 2-[1-(4-methoxy-2,6-dimethyl-phenylsulfonyl)-pyrrolidin-2-ylmethoxy]-N-(4-piperidin-1-ylmethyl-benzyl)-acetamide]
13 | 102% | 99.7% | – | – | Cc1cc(C)nc(CC2CCCN2C(=O)COCC2CCCCN2S(=O)(=O)c2c(Cl)cccc2Cl)c1 (stereo not shown) [Example 457, 2-((1-(2,6-dichlorophenylsulfonyl)piperidin-2-yl)methoxy)-1-(2-((4,6-dimethylpyridin-2-yl)methyl)pyrrolidin-1-yl)ethanone]
14 | 91.9% | 101% | – | – | CN1CCC(N2CCN(C(=O)COCC3CCCCN3S(=O)(=O)c3ccc4ccccc4c3)CC2)CC1 (stereo not shown) [Example 111, 1-(4-(1-methylpiperidin-4-yl)piperazin-1-yl)-2-((1-(naphthalen-2-ylsulfonyl)piperidin-2-yl)methoxy)ethanone]
15 | 35.1% | 97.6% | – | – | CCN(CCCNC(=O)COCC1CCCCN1S(=O)(=O)c1c(C)cc(OC)cc1C)c1ccccc1 (stereo not shown) [Example 424, N-(3-(ethyl(phenyl)amino)propyl)-2-((1-(4-methoxy-2,6-dimethylphenylsulfonyl)piperidin-2-yl)methoxy)acetamide]
16 | 7.55% | 114% | – | – | Cc1cc(C)c(S(=O)(=O)N2CCCCC2COCC(=O)N2CCC(c3nc4cc(C)ccc4[nH]3)CC2)c(C)c1 (stereo not shown) [Example 222, 2-((1-(mesitylsulfonyl)piperidin-2-yl)methoxy)-1-(4-(5-methyl-1H-benzo[d]imidazol-2-yl)piperidin-1-yl)ethanone]
17 | 48.9% | 40.3% | – | – | Cc1cc(C)c(S(=O)(=O)N2CCCCC2COCC(=O)Nc2cccc(CN3CCCCC3)c2)c(C)c1 (stereo not shown) [Example 76, N-(3-piperidin-1-ylmethyl-phenyl)-2-[1-(2,4,6-trimethyl-phenylsulfonyl)-piperidin-2-ylmethoxy]-acetamide]
18 | 107% | 89.6% | – | – | Cc1ccc(S(=O)(=O)N2CCCCC2COCC(=O)N2CCN(C3CCN(C)CC3)CC2)c2ccccc12 (stereo not shown) [Example 155, 2-((1-(4-methylnaphthalen-1-ylsulfonyl)piperidin-2-yl)methoxy)-1-(4-(1-methylpiperidin-4-yl)piperazin-1-yl)ethanone dihydrochloride]
19 | 7.17% | 100% | – | – | COc1cc(C)c(S(=O)(=O)N2CCCCC2COCC(=O)Nc2cc(-c3ccccc3OC)[nH]n2)c(C)c1 (stereo not shown) [Example 540, 2-((1-(4-methoxy-2,6-dimethylphenylsulfonyl)piperidin-2-yl)methoxy)-N-(5-(2-methoxyphenyl)-1H-pyrazol-3-yl)acetamide]
20 | 91% | 101% | – | – | COc1cc(C)c(S(=O)(=O)N2CCCCC2COCC(=O)N2CCN(Cc3ccccc3F)CC2)c(C)c1 (stereo not shown) [Example 387, 1-(4-(2-fluorobenzyl)piperazin-1-yl)-2-((1-(4-methoxy-2,6-dimethylphenylsulfonyl)piperidin-2-yl)methoxy)ethanone]
21 | 98.6% | 100% | – | – | O=C(COCC1CCCCN1S(=O)(=O)c1c(Cl)cccc1Cl)N1CCN(Cc2ccc(Cl)c(Cl)c2)CC1 (stereo not shown) [Example 405, 1-(4-(3,4-dichlorobenzyl)piperazin-1-yl)-2-((1-(2,6-dichlorophenylsulfonyl)piperidin-2-yl)methoxy)ethanone]
22 | 93.5% | 103% | – | – | CCc1ccc(CC2CCCN2C(=O)COCC2CCCN2S(=O)(=O)c2c(C)cc(OC)cc2C)nc1 (stereo not shown) [Example 490, 1-(2-((5-ethylpyridin-2-yl)methyl)pyrrolidin-1-yl)-2-((1-(4-methoxy-2,6-dimethylphenylsulfonyl)pyrrolidin-2-yl)methoxy)ethanone]
23 | 104% | 102% | – | – | CN1CCC(N2CCN(C(=O)COCC3CCCN3S(=O)(=O)c3c(Cl)cccc3Cl)CC2)CC1 (stereo not shown) [Example 567, 2-((1-(2,6-dichlorophenylsulfonyl)pyrrolidin-2-yl)methoxy)-1-(4-(1-methylpiperidin-4-yl)piperazin-1-yl)ethanone]
